Reference: patent US20180220653A1, “Methods for Identifying Compounds that Directly Bind to Insect Transient Receptor Potential Channels” (priority 2015, published 2018)
Read-outs that look alike come from different tables or passages of the source.

Key:
[1] = molecular target: T1, insect TRPV channels, Nan and Iav (Drosophila melanogaster, UniProt M9PI57+Q9W3W0); conditions: for EC50: read-out: half-maximal effective concentrations (EC50), calcium mobilization, CHO cells co-expressing Nan and Iav, FIG. 5
T1 sequence (M9PI57 1-834): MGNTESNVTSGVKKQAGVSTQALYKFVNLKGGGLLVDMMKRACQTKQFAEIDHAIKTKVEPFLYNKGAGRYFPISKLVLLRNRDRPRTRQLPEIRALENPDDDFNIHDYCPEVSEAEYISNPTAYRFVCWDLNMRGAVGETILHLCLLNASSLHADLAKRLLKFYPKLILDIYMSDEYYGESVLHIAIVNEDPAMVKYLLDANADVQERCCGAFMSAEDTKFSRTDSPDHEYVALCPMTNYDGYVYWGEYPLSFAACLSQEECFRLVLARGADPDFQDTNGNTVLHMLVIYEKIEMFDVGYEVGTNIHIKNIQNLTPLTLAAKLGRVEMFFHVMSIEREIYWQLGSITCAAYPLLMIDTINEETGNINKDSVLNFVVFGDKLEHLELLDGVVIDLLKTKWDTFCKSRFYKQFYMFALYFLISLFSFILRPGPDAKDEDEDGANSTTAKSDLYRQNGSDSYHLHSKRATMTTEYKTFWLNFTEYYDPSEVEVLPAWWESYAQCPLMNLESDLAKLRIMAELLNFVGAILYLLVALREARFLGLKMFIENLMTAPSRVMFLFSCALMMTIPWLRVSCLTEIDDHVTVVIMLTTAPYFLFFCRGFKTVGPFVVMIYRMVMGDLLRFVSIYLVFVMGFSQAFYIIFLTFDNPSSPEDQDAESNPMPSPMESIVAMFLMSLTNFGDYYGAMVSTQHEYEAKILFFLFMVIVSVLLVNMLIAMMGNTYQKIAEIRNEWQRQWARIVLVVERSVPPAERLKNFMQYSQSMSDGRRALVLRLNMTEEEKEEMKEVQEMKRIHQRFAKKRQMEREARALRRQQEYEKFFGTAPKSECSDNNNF
T1 sequence (Q9W3W0 1-1123): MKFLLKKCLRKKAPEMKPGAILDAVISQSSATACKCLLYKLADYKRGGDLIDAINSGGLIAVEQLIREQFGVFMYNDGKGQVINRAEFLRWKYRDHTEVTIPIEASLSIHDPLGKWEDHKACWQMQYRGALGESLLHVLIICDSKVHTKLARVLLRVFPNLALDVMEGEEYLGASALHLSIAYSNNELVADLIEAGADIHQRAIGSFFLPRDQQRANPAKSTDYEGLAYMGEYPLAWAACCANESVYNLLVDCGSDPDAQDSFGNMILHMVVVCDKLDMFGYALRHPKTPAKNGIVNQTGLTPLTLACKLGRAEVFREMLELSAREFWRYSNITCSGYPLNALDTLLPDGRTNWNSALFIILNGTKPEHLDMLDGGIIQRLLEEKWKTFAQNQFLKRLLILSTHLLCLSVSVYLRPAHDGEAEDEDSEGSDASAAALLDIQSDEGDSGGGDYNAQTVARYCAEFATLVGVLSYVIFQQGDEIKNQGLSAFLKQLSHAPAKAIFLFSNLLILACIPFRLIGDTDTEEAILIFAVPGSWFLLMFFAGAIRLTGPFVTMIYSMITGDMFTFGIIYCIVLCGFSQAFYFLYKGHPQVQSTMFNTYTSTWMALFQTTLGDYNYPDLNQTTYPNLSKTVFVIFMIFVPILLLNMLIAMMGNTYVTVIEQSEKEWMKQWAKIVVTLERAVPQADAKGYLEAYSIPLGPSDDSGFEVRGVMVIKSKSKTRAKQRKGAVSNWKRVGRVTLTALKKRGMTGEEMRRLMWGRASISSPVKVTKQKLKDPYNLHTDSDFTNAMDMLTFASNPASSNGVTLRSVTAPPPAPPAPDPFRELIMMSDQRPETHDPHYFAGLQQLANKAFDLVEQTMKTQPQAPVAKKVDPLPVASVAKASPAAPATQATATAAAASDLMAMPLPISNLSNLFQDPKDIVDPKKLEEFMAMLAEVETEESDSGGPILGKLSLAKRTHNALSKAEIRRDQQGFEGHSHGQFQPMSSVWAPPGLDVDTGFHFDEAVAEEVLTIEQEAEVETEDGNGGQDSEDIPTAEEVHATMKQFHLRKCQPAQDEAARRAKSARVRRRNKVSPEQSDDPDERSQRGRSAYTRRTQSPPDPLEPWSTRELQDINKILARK

Nan = format: binding, Drosophila; conditions: for displacement of [3H]-afidopyropen from Nan-only sites: Ki not accurately determined, curves did not reach bottom plateaus
[2] = molecular target: T1, insect TRPV channels, Nan and Iav; test: cell-based
[3] = Solubility observed in competition binding assay; conditions: at high concentrations, binding buffer
[4] = test system: locusts (Locusta migratoria); conditions: injection, Ausborn et al., 2005; cited from earlier work
[5] = molecular target: T1, insect TRPV channels, Nan and Iav
[6] = test system: American grasshoppers (Schistocerca americana); test: Leg extension assay in American grasshoppers; format: in vivo; conditions: injection, 10 mM in 100% DMSO, 3 μl per animal; assessed 40-60 minutes post-injection
Protocol: American grasshoppers (Schistocerca americana) were obtained from Dr. Hojun Song (University of Central Florida). Test compounds (10 mM in 100% DMSO), or vehicle (100% DMSO) were applied by injection through the abdominal intersegmental cuticle (3 μl per animal), using Hamilton syringe. The effects of compounds were assessed 40-60 minutes post-injection.

[7] = molecular target: mouse TRPV channel, mTRPV4 (Mus musculus, UniProt Q9EPK8); test: Calcium response in CHO cells expressing mTRPV4; format: cell-based; conditions: CHO cells transduced with mTRPV4 adenovirus; FIG. 6
Sequence of mouse TRPV channel, mTRPV4 (Q9EPK8 whole entry): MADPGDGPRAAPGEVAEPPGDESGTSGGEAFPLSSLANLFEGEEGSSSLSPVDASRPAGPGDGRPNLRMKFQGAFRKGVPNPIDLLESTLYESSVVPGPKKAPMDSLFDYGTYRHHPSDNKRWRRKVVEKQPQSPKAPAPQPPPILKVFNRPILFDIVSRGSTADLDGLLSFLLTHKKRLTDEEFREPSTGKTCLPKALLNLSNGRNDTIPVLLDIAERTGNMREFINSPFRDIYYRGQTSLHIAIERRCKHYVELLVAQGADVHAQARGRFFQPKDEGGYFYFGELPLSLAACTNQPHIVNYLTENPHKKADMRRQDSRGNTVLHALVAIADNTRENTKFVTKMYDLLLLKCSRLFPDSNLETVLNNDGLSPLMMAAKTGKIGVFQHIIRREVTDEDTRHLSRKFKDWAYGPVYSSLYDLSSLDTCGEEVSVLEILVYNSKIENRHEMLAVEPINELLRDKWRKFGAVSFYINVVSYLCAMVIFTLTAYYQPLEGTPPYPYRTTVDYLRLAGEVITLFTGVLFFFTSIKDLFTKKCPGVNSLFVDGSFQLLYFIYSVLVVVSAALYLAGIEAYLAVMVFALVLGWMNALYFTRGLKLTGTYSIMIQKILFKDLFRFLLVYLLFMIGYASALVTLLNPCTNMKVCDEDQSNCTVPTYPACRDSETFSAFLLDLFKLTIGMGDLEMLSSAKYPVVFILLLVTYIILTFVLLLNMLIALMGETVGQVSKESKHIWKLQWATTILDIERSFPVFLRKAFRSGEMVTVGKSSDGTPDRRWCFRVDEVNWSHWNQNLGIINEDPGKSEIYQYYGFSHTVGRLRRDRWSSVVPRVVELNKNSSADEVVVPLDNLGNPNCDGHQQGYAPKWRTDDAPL

[8] = test system: Nan and Iav from pea aphid; test: Two-electrode voltage clamp in Xenopus laevis oocytes injected with Nan and Iav mRNA; format: cell-based, Acyrthosiphon pisum; conditions: 10 uM dPFQ; oocytes with Nan+Iav vs Nan or Iav alone; FIG. 4a
[9] = Nan+Iav cells vs parental cells and cells expressing Nan or Iav alone, FIG. 3
[10] = Nan+Iav cells vs parental cells and cells expressing Nan or Iav alone, FIG. 4

| SMILES | calcium mobilization response [1] | displacement of [3H]-afidopyropen from Nan-only sites (Nan) | EC50 [2] | solubility [3] | hind leg extension [4] | membrane depolarization response [5] | hind leg extension [6] | calcium response / activation of mTRPV4 [7] | calcium mobilization response [1, 9] | EC50 [1] | Ki (Nan; Nan-only expressing membranes, FIG. 9B, read-out: Ki, displacement assay) | membrane depolarization response [5, 10] | inward and outward current responses [8] |
| --- | --- | --- | --- | --- | --- | --- | --- | --- | --- | --- | --- | --- | --- |
| CC1=NNC(=O)N(/N=C/c2cccnc2)C1 [pymetrozine] | only in cells co-infected with Nan and Iav viruses | clearly displaced | 51 nM | poor solubility | produce characteristic hind leg extension | only in cells co-infected with Nan and Iav viruses | Elicit Characteristic Hind Leg Extension | – | – | – | – | – | – |
| CC(C)C[C@H](NC(=O)c1cc2ccccc2s1)C(=O)N1CCN(C(=O)[C@H](CO)NS(=O)(=O)c2ccc(Cl)cc2Cl)CC1 [GSK1016790A, N-((1S)-1-{[4-((2S)-2-{[(2,4-dichlorophenyl)sulfonyl]amino}-3-hydroxypropanoyl)-1-piperazinyl]carbonyl}-3-methylbutyl)-1-benzothiophene-2-carboxamide] | – | – | – | – | – | – | – | evoked strong calcium response | – | – | – | – | – |
| C[C@]1(COC(=O)C2CC2)[C@@H]2C[C@H](O)[C@@]3(C)Oc4cc(-c5cccnc5)oc(=O)c4[C@H](O)[C@@H]3[C@@]2(C)CC[C@@H]1OC(=O)C1CC1 [afidopyropen] | – | – | – | – | – | – | elicited hind leg extension | failed to activate | only in cells co-infected with Nan and Iav viruses | 1 nM | 3.1 nM | only in cells co-infected with Nan and Iav viruses | – |
| O=C1Nc2ccc(C(F)(C(F)(F)F)C(F)(F)F)cc2CN1NCc1cccnc1 [N-deacetylated pyrifluquinazon] | – | clearly displaced | – | poor solubility | – | – | – | – | only in cells co-infected with Nan and Iav viruses | 64 nM | – | only in cells co-infected with Nan and Iav viruses | evoked both inward and outward current responses only in oocytes expressing both Nan and Iav |
